Reference: US9738902B2, “Modified PYR/PYL receptors activated by ligands” (priority 2013, dated 2017)

How the values were obtained:
Assay in all cases: Y2H Pocket Library Screen (HAB1, X-gal)
Format in all cases: cell-based
PYR1 K59R F108S = target: T1, PYR1 K59R F108S (Arabidopsis thaliana, UniProt O49686, F108S/K59R)
T1 construct: expressed in transfected cells; host or cells: S. cerevisiae Y190 yeast two-hybrid reporter strain
How it was run: (§1)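 Readout is X-gal staining of β-galactosidase after chloroform lysis, marking compound-induced PYR1 mutant–HAB1 interaction in Y190 yeast. Strains grew on selective dextrose medium lacking Leu and Trp with 100 μM test compound for two days at 30° C.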

PYR1 K59R F159T = target: T2, PYR1 K59R F159T (Arabidopsis thaliana, UniProt O49686, F159T/K59R)
T2 construct: expressed in transfected cells; host or cells: S. cerevisiae Y190
How it was run: as §1

PYR1 K59R F108I = target: T3, PYR1 K59R F108I (Arabidopsis thaliana, UniProt O49686, F108I/K59R)
T3 construct: expressed in transfected cells; host or cells: S. cerevisiae Y190 yeast two-hybrid reporter strain
How it was run: as §1

PYR1 K59R F108L = target: T4, PYR1 K59R F108L (Arabidopsis thaliana, UniProt O49686, F108L/K59R)
T4 construct: expressed in transfected cells; host or cells: S. cerevisiae Y190 yeast two-hybrid reporter strain
How it was run: as §1

PYR1 K59R A89W = target: T5, PYR1 K59R A89W (Arabidopsis thaliana, UniProt O49686, A89W/K59R)
T5 construct: expressed in transfected cells; host or cells: S. cerevisiae Y190 yeast two-hybrid reporter strain
How it was run: as §1

PYR1 K59R F159M = target: T6, PYR1 K59R F159M (Arabidopsis thaliana, UniProt O49686, F159M/K59R)
T6 construct: expressed in transfected cells; host or cells: S. cerevisiae Y190
How it was run: as §1

PYR1 K59R F108A = target: T7, PYR1 K59R F108A (Arabidopsis thaliana, UniProt O49686, F108A/K59R)
T7 construct: expressed in transfected cells; host or cells: S. cerevisiae Y190 yeast two-hybrid reporter strain
How it was run: as §1

PYR1 K59R A160T = target: T8, PYR1 K59R A160T (Arabidopsis thaliana, UniProt O49686, A160T/K59R)
T8 construct: expressed in transfected cells; host or cells: S. cerevisiae Y190
How it was run: as §1

PYR1 K59R T162K = target: T9, PYR1 K59R T162K (Arabidopsis thaliana, UniProt O49686, K59R/T162K)
T9 construct: expressed in transfected cells; host or cells: S. cerevisiae Y190
How it was run: as §1

PYR1 K59R V164F = target: T10, PYR1 K59R V164F (Arabidopsis thaliana, UniProt O49686, K59R/V164F)
T10 construct: expressed in transfected cells; host or cells: S. cerevisiae Y190
How it was run: as §1

PYR1 K59R N167S = target: T11, PYR1 K59R N167S (Arabidopsis thaliana, UniProt O49686, K59R/N167S)
T11 construct: expressed in transfected cells; host or cells: S. cerevisiae Y190 two-hybrid reporter strain
How it was run: as §1

PYR1 K59R A160C = target: T12, PYR1 K59R A160C (Arabidopsis thaliana, UniProt O49686, A160C/K59R)
T12 construct: expressed in transfected cells; host or cells: S. cerevisiae Y190
How it was run: as §1

PYR1 K59R V164E = target: T13, PYR1 K59R V164E (Arabidopsis thaliana, UniProt O49686, K59R/V164E)
T13 construct: expressed in transfected cells; host or cells: S. cerevisiae Y190
How it was run: as §1

PYR1 K59R E141Q = target: T14, PYR1 K59R E141Q (Arabidopsis thaliana, UniProt O49686, E141Q/K59R)
T14 construct: expressed in transfected cells; host or cells: S. cerevisiae Y190 two-hybrid reporter strain
How it was run: as §1

PYR1 K59R L87P = target: T15, PYR1 K59R L87P (Arabidopsis thaliana, UniProt O49686, K59R/L87P)
T15 construct: expressed in transfected cells; host or cells: S. cerevisiae Y190 yeast two-hybrid reporter strain
How it was run: as §1

PYR1 K59R M158S = target: T16, PYR1 K59R M158S (Arabidopsis thaliana, UniProt O49686, K59R/M158S)
T16 construct: expressed in transfected cells; host or cells: S. cerevisiae Y190 two-hybrid reporter strain
How it was run: as §1

PYR1 K59R V83L = target: T17, PYR1 K59R V83L (Arabidopsis thaliana, UniProt O49686, K59R/V83L)
T17 construct: expressed in transfected cells; host or cells: S. cerevisiae Y190 yeast two-hybrid reporter strain
How it was run: as §1

PYR1 K59R A160S = target: T18, PYR1 K59R A160S (Arabidopsis thaliana, UniProt O49686, A160S/K59R)
T18 construct: expressed in transfected cells; host or cells: S. cerevisiae Y190
How it was run: as §1

PYR1 K59R T162L = target: T19, PYR1 K59R T162L (Arabidopsis thaliana, UniProt O49686, K59R/T162L)
T19 construct: expressed in transfected cells; host or cells: S. cerevisiae Y190
How it was run: as §1

PYR1 K59R E141L = target: T20, PYR1 K59R E141L (Arabidopsis thaliana, UniProt O49686, E141L/K59R)
T20 construct: expressed in transfected cells; host or cells: S. cerevisiae Y190 two-hybrid reporter strain
How it was run: as §1

PYR1 K59R M158T = target: T21, PYR1 K59R M158T (Arabidopsis thaliana, UniProt O49686, K59R/M158T)
T21 construct: expressed in transfected cells; host or cells: S. cerevisiae Y190 two-hybrid reporter strain
How it was run: as §1

PYR1 K59R M158A = target: T22, PYR1 K59R M158A (Arabidopsis thaliana, UniProt O49686, K59R/M158A)
T22 construct: expressed in transfected cells; host or cells: S. cerevisiae Y190 two-hybrid reporter strain
How it was run: as §1

PYR1 K59R M158I = target: T23, PYR1 K59R M158I (Arabidopsis thaliana, UniProt O49686, K59R/M158I)
T23 construct: expressed in transfected cells; host or cells: S. cerevisiae Y190 two-hybrid reporter strain
How it was run: as §1

PYR1 K59R A160V = target: T24, PYR1 K59R A160V (Arabidopsis thaliana, UniProt O49686, A160V/K59R)
T24 construct: expressed in transfected cells; host or cells: S. cerevisiae Y190
How it was run: as §1

PYR1 K59R V164Q = target: T25, PYR1 K59R V164Q (Arabidopsis thaliana, UniProt O49686, K59R/V164Q)
T25 construct: expressed in transfected cells; host or cells: S. cerevisiae Y190 two-hybrid reporter strain
How it was run: as §1

PYR1 K59R E141H = target: T26, PYR1 K59R E141H (Arabidopsis thaliana, UniProt O49686, E141H/K59R)
T26 construct: expressed in transfected cells; host or cells: S. cerevisiae Y190 two-hybrid reporter strain
How it was run: as §1

PYR1 K59R E94D = target: T27, PYR1 K59R E94D (Arabidopsis thaliana, UniProt O49686, E94D/K59R)
T27 construct: expressed in transfected cells; host or cells: S. cerevisiae Y190 yeast two-hybrid reporter strain
How it was run: as §1

PYR1 K59R A160Y = target: T28, PYR1 K59R A160Y (Arabidopsis thaliana, UniProt O49686, A160Y/K59R)
T28 construct: expressed in transfected cells; host or cells: S. cerevisiae Y190
How it was run: as §1

Measured: Threshold

T5 sequence (O49686 whole entry K59R/A89W): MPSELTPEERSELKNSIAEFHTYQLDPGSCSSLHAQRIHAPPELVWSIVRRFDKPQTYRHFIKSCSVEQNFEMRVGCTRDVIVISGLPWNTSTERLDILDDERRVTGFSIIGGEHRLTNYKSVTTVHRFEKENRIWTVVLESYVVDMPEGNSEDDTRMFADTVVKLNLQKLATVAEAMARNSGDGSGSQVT
T5 sequence (Q9CAJ0 23-511, further chain): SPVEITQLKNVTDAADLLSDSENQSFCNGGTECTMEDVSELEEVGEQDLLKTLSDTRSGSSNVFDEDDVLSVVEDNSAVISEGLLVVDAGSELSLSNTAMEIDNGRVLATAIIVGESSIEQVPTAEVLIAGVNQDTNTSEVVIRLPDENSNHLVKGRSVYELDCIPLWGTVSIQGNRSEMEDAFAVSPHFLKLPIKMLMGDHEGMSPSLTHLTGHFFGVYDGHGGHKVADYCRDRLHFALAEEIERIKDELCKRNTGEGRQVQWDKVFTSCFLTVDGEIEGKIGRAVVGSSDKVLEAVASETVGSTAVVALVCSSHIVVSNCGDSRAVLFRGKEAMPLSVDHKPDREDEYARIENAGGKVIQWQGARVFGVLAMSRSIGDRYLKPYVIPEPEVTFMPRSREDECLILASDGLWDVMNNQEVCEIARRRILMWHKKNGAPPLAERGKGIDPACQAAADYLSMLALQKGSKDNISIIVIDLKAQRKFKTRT
T6 sequence (O49686 whole entry K59R/F159M): as the sequence (O49686 whole entry K59R/A89W) above, with W89A, F159M counted along it
T6 sequence (Q9CAJ0 23-511, further chain): as the sequence (Q9CAJ0 23-511, further chain) above
T16 sequence (O49686 whole entry K59R/M158S): as the sequence (O49686 whole entry K59R/A89W) above, with W89A, M158S counted along it
T16 sequence (Q9CAJ0 23-511 partner): as the sequence (Q9CAJ0 23-511, further chain) above
T2 sequence (Q9CAJ0 23-511): as the sequence (Q9CAJ0 23-511, further chain) above
T2 sequence (O49686 whole entry K59R/F159T): as the sequence (O49686 whole entry K59R/A89W) above, with W89A, F159T counted along it
T26 sequence (Q9CAJ0 23-511): as the sequence (Q9CAJ0 23-511, further chain) above
T26 sequence (O49686 whole entry K59R/E141H): as the sequence (O49686 whole entry K59R/A89W) above, with W89A, E141H counted along it
T21 sequence (Q9CAJ0 23-511): as the sequence (Q9CAJ0 23-511, further chain) above
T21 sequence (O49686 whole entry K59R/M158T): as the sequence (O49686 whole entry K59R/A89W) above, with W89A, M158T counted along it
T4 sequence (O49686 whole entry K59R/F108L): as the sequence (O49686 whole entry K59R/A89W) above, with W89A, F108L counted along it
T4 sequence (Q9CAJ0 23-511 partner): as the sequence (Q9CAJ0 23-511, further chain) above

C#CCOc1ccc(CCNC(=O)C(OCC#C)c2ccc(Cl)cc2)cc1OC (stereo not shown) [Mandipropamid, mandipropamid]
100 µM: PYR1 K59R F108S | PYR1 K59R F159T | PYR1 K59R F108I | PYR1 K59R F108L | PYR1 K59R A89W | PYR1 K59R F159M | PYR1 K59R F108A

N#Cc1c(Cl)cccc1Cl [Dichlobenil, dichlobenil]
not listed: PYR1 K59R F108S | PYR1 K59R F159T | PYR1 K59R F108I | PYR1 K59R F108L | PYR1 K59R A89W | PYR1 K59R F159M | PYR1 K59R F108A
100 µM: all other assays above
